This is an account of results in PMC10144058, “New Hybrid Scaffolds Based on 5-FU/Curcumin: Synthesis, Cytotoxic, Antiproliferative and Pro-Apoptotic Effect” (Pharmaceutics, 2023).

As usually defined, the IC50 is the concentration at which inhibition is half-maximal. Usually melting point stands for the temperature of the solid-liquid transition.

One data set relates to SW480 cells. Briefly: Cell viability, sulforhodamine B (SRB) assay. Type of data set: cell-based. The following applies: Homo sapiens. As to the method:
(§1) SW480 (colon adenocarcinoma) and SW620 (derived metastatic) malignant cell lines, and the non-malignant lines HaCaT (human keratinocytes) and CHO-K1 (Chinese Hamster Ovary), were obtained from the European Collection of Authenticated Cell Cultures (ECACC, Porton Down, Salisbury, UK). The cells were maintained in Dulbecco’s Modified Eagle’s Medium (DMEM), supplemented with 10% equine serum previously inactivated at 56 °C, 1% penicillin/streptomycin, and 1% non-essential amino acids, and incubated at 37 °C in an atmosphere with 5% CO2. To carry out the experiments, the serum was diluted to 3% and additionally supplemented with […] insulin, […] transferrin, and 5 ng/mL selenium. Cells were used for experimentation when they reached 80–90% confluence, using a 1X trypsin enzymatic disintegration method. To avoid contamination by Mycoplasma spp., cell cultures were periodically analyzed by polymerase chain reaction (PCR).
(§2) Cell viability was evaluated with a sulforhodamine B (SRB) assay. This technique provides an index of protein contents in living and adherent cells, whose optical density can be related to cell concentration. Initially, 20,000 cells were seeded per well in 96-well culture plates. An initial adherence period of 24 h was performed at 37 °C, 5% CO2, and after this, the medium was replaced by another that contained the hybrid compounds in different concentrations. Then, the cells were left incubating for 24 and 48 h under the same conditions previously described. After the respective incubation times, the cells were fixed with trichloroacetic acid (50% v/v) for 1 h at 4 °C and stained with 0.4% (p/v) of SRB. Subsequently, washings with 1% acetic acid were carried out to eliminate possible nonspecific bindings, and after solubilization with 10 mM Tris-base, the absorbance was read at 492 nm in a microplate reader (Mindray MR-96A). All the experiments were carried out in triplicate.
In general terms: The SRB assay estimates cell density from bound dye.

The test system of data set [1] is SW620 cells. Briefly: Cell viability, sulforhodamine B (SRB) assay. The following applies: Homo sapiens. Type of data set: cell-based, human. Here is the method:
as §1, §2

A further data set relates to HaCaT cells. Briefly: Cell viability, sulforhodamine B (SRB) assay, non-malignant cells. Type of data set: cell-based. As to conditions: Homo sapiens. As to the method: as §1, §2
In another data set the test system is CHO-K1 cells. The data set is described as above. Type of data set: cell-based, Chinese Hamster. The following applies: Cricetulus griseus. Here is the method: as §1, §2
In data set [2] the test system is SW620 cells. Details: method as in PMID 36297411. The following applies: cited from earlier work.

Like-named read-outs stand apart in the source and are kept apart here.

Regarding `O=c1[nH]cc(F)c(=O)[nH]1` [Compound 5-FU, 5-fluorouracil, reference compound], the IC50 in the data set with SW480 cells (SW480, 24 h) is 1540 ± 128 µM; with SW480 cells (SW480, 48 h), 174 ± 19.1 µM; in the data set with SW620 cells [1] (SW-620, 24 h, 24 h) it was 899 ± 60.7 µM; with SW620 cells [1] (SW-620, 48 h, 48 h) it was 181 ± 18.8 µM; in the data set on HaCaT cells (24 h), over 1000 µM; in the data set on HaCaT cells (48 h), 119 ± 2.84 µM. Besides, the IC50 with CHO-K1 cells (CHO-K1, 24 h) was 544 ± 52.9 µM; with CHO-K1 cells (CHO-K1, 48 h), 173 ± 14.6 µM.
Take `COc1cc(/C=C/C(=O)c2ccc(OCCCn3cc(Cn4cc(F)c(=O)[nH]c4=O)nn3)cc2)ccc1O` [Compound 6b, (E)-5-fluoro-1-((1-(3-(4-(3-(4-hydroxy-3-methoxyphenyl)acryloyl)phenoxy)propyl)-1H-1,2,3-triazol-4-yl)methyl)pyrimidine-2,4(1H,3H)-dione]: the melting point was in the range of 124 to 129 °C. Further, it took 48.4 ± 2.82 µM to reach half-maximal inhibition with SW480 cells (SW480, 24 h) (IC50). The compound also displayed an IC50 in the data set with SW480 cells (SW480, 48 h) of 17.1 ± 0.8 µM. The IC50 in the data set on SW620 cells [1] (SW-620, 24 h, 24 h) worked out at 90.2 ± 9.33 µM. Moreover, in the data set with SW620 cells [1] (SW-620, 48 h, 48 h), the midpoint of inhibition, the IC50, lay at 33.7 ± 1.03 µM. In the data set with HaCaT cells (24 h), this compound registered an IC50 of 58.1 ± 3.3 µM. This compound also registered a half-maximal inhibitory concentration (IC50) with HaCaT cells (48 h) of 18.4 ± 1.1 µM. Further, inhibition with CHO-K1 cells (CHO-K1, 24 h) was half-maximal at 51.3 ± 2.86 µM (IC50). In the data set on CHO-K1 cells (CHO-K1, 48 h), the 50% inhibitory concentration (IC50) was 46.5 ± 1.34 µM.
Compound `COc1cc(/C=C/C(=O)c2ccc(OCCCCn3cc(Cn4cc(F)c(=O)[nH]c4=O)nn3)cc2)ccc1O` [Compound 6c, (E)-5-fluoro-1-((1-(4-(4-(3-(4-hydroxy-3-methoxyphenyl)acryloyl)phenoxy)butyl)-1H-1,2,3-triazol-4-yl)methyl)pyrimidine-2,4(1H,3H)-dione] gave a melting point of 61 to 65 °C. Further, the midpoint of inhibition with SW480 cells (SW480, 24 h), the IC50, lay at 30.4 ± 2.69 µM. In the data set on SW480 cells (SW480, 48 h), this compound displayed a half-maximal inhibitory concentration (IC50) of 16.4 ± 0.97 µM. Moreover, the half-inhibitory concentration (IC50) in the data set on SW620 cells [1] (SW-620, 24 h, 24 h) came out at 83.9 ± 8.08 µM. In the data set with SW620 cells [1] (SW-620, 48 h, 48 h), this compound yielded an IC50 of 28.1 ± 1.85 µM. In the data set with HaCaT cells (24 h), this compound yielded an IC50 of 45.4 ± 4.18 µM. The compound further displayed a concentration for half-maximal inhibition (IC50) in the data set with HaCaT cells (48 h) of 19.1 ± 1.68 µM. Further, it took 26.3 ± 2.99 µM to reach half-maximal inhibition in the data set with CHO-K1 cells (CHO-K1, 24 h) (IC50). The same compound displayed an IC50 in the data set on CHO-K1 cells (CHO-K1, 48 h) of 30.5 ± 2.18 µM.
With `COc1cc(/C=C/C(=O)c2ccc(OCCCCCCCCn3cc(Cn4cc(F)c(=O)[nH]c4=O)nn3)cc2)ccc1O` [Compound 6f, (E)-5-fluoro-1-((1-(8-(4-(3-(4-hydroxy-3-methoxyphenyl)acryloyl)phenoxy)octyl)-1H-1,2,3-triazol-4-yl)methyl)pyrimidine-2,4(1H,3H)-dione], the melting point was 98 to 102 °C. Also, in the data set on SW480 cells (SW480, 24 h), the half-inhibitory concentration (IC50) was over 100 µM. Also, the half-maximal inhibitory concentration (IC50) in the data set on SW480 cells (SW480, 48 h) is 29.7 ± 2.43 µM. In the data set with SW620 cells [1] (SW-620, 24 h, 24 h), this compound displayed an IC50 of over 100 µM. For the same compound, the half-maximal inhibitory concentration (IC50) in the data set on SW620 cells [1] (SW-620, 48 h, 48 h) is over 100 µM. In addition, the IC50 in the data set with HaCaT cells (24 h) is over 100 µM. In the data set on HaCaT cells (48 h), this compound came in with a 50% inhibitory concentration (IC50) of 35.1 ± 4.74 µM. Moreover, the IC50 in the data set on CHO-K1 cells (CHO-K1, 24 h) is over 100 µM. In the data set on CHO-K1 cells (CHO-K1, 48 h), this compound came in with a half-inhibitory concentration (IC50) of over 100 µM.
Take `COc1cc(/C=C/C(=O)c2ccc(OCCCCCCCCCn3cc(Cn4cc(F)c(=O)[nH]c4=O)nn3)cc2)ccc1O` [Compound 6g, (E)-5-fluoro-1-((1-(9-(4-(3-(4-hydroxy-3-methoxyphenyl)acryloyl)phenoxy)nonyl)-1H-1,2,3-triazol-4-yl)methyl)pyrimidine-2,4(1H,3H)-dione]: the melting point was 113 to 120 °C. This compound returned a 50% inhibitory concentration (IC50) in the data set on SW480 cells (SW480, 24 h) of over 100 µM. For the same compound, the IC50 with SW480 cells (SW480, 48 h) was over 100 µM. In the data set with SW620 cells [1] (SW-620, 24 h, 24 h), this compound displayed an IC50 of over 100 µM. The compound further gave a 50% inhibitory concentration (IC50) in the data set with SW620 cells [1] (SW-620, 48 h, 48 h) of over 100 µM. In the data set with HaCaT cells (24 h), this compound showed a 50% inhibitory concentration (IC50) of over 100 µM. This compound also showed an IC50 with HaCaT cells (48 h) of over 100 µM. In the data set on CHO-K1 cells (CHO-K1, 24 h), this compound came in with an IC50 of over 100 µM. In the data set on CHO-K1 cells (CHO-K1, 48 h), this compound displayed an IC50 of over 100 µM.
The compound `COc1cc(/C=C/C(=O)c2ccc(OCCCCCCCCCCCCn3cc(Cn4cc(F)c(=O)[nH]c4=O)nn3)cc2)ccc1O` [Compound 6h, (E)-5-fluoro-1-((1-(12-(4-(3-(4-hydroxy-3-methoxyphenyl)acryloyl)phenoxy)dodecyl)-1H-1,2,3-triazol-4-yl)methyl)pyrimidine-2,4(1H,3H)-dione] returned a melting point of 129 to 135 °C. Further, the 50% inhibitory concentration (IC50) in the data set on SW480 cells (SW480, 24 h) was over 100 µM. Further, in the data set on SW480 cells (SW480, 48 h), the concentration for half-maximal inhibition (IC50) is over 100 µM. In the data set on SW620 cells [1] (SW-620, 24 h, 24 h), this compound had an IC50 of over 100 µM. Moreover, the IC50 in the data set on SW620 cells [1] (SW-620, 48 h, 48 h) is over 100 µM. In addition, in the data set on HaCaT cells (24 h), the 50% inhibitory concentration (IC50) is over 100 µM. Also, in the data set on HaCaT cells (48 h), the IC50 is over 100 µM. In addition, the IC50 in the data set on CHO-K1 cells (CHO-K1, 24 h) was over 100 µM. The compound further came in with an IC50 with CHO-K1 cells (CHO-K1, 48 h) of over 100 µM.
Turning to `COc1cc(/C=C/C(=O)CC(=O)/C=C/c2ccc(O)c(OC)c2)ccc1O` [Curcumin, curcumin], the half-inhibitory concentration (IC50) is 84.6 ± 6.6 µM in the data set with SW480 cells (SW480, 24 h); 90.4 ± 1 µM with SW480 cells (SW480, 48 h); 164 ± 5.88 µM in the data set on SW620 cells [1] (SW-620, 24 h, 24 h); 22.2 ± 2.37 µM in the data set with SW620 cells [1] (SW-620, 48 h, 48 h); over 100 µM in the data set on HaCaT cells (24 h); 28.8 ± 2.33 µM in the data set on HaCaT cells (48 h). Besides, the IC50 was 20.2 ± 2.41 µM with CHO-K1 cells (CHO-K1, 24 h) and 36.3 ± 4.17 µM in the data set with CHO-K1 cells (CHO-K1, 48 h).
In the case of `O=c1[nH]c(=O)n(Cc2cn(CCCCCCCCCOc3cc(O)c4c(=O)c(-c5ccc(O)cc5)coc4c3)nn2)cc1F` [F], the IC50 with SW620 cells [2] was 36.8 ± 0.71 µM.
